Here are results for three compounds from patent US8518956B2, “1-(1-(2-ethoxyethyl)-3-ethyl-7-(4-methylpyridin-2-ylamino)-1H-pyrazolo[4,3-d]pyrimidin-5-yl) piperidine-4-carboxylic acid and salts thereof” (priority 2005, dated 2013).

One series has as its target T1, PDE5 enzyme (Homo sapiens, UniProt O76074).
T1 construct: The PDE5 enzyme isolated from human platelets; from tissue; host or cells: human platelets
As to the kind of experiment: Method 1A: Alternative Human Platelet PDE5 Enzyme Inhibition Scintillation Proximity Assay. As to conditions: METHOD 1a: PDE5 IC50, Table D, WO2004096810 examples. It counts as biochemical. On the procedure: Method 1A: Alternative Human Platelet PDE5 Enzyme Inhibition Scintillation Proximity Assay
PDE5 IC50 Assay: 96-Well Microtiter Plate Format
• Buffer A: 20 mM Tris-HCl, 5 mM MgCl2, pH 7.4 • Buffer B: 2 mg/ml BSA in Buffer A (enzyme buffer) • cGMP substrate: Final concentration of 50 nM in assay The amount of ^3H-labeled substrate added depends upon the specific activity of [^3H]cGMP, and it is diluted in Buffer A. • PDE enzyme: Prepared in Buffer B. The dilution factor is determined by enzyme activity. • SPA beads: 4 mg/ml suspension prepared in dH2O.
Stocks of standard and test compound are prepared at 2 mM in 100% DMSO. […] 27 μl of Buffer A are added to the wells of the assay plates. From the dilution plate, 3 μl of diluted compound is delivered in duplicate or 3 μl of 100% DMSO (for positive and negative controls) are added. 30 μl of enzyme are added. For the negative control wells, Buffer B is substituted in place of the enzyme. 30 μl of labeled substrate are added to all wells.
After incubating for 60 minutes at room temperature, the reaction is stopped with the addition of 30 μl of the yttrium silicate beads. These beads are dense and require constant agitation while being added to the plate. The plates are sealed and shaken on a plate shaker for fifteen minutes to allow the beads to bind the GMP product.
After allowing the beads to settle for 30 minutes, plates are read on a NXT TopCount scintillation counter and the data are analyzed as follows. Percent inhibition values are calculated using the means of the 0% and 100% controls on each plate. The estimates of the 4-parameters of the logistic, sigmoid dose-response model are then calculated using the well-level percent inhibition value for the compound.

Another series deals with PDE6 enzyme. Nature of the series: Method 2A: Alternative Human Retina PDE6 Enzyme Inhibition Scintillation Proximity Assay (SPA). It counts as biochemical. To be noted: Table F, WO2004096810 examples.
For series [1], the target named is T2, PDE11 enzyme (Homo sapiens, UniProt Q9HCR9, DUP921-921).
T2 construct: FLAG (N); made in house; host or cells: Sf9 insect cells (baculovirus, pFastBac)
As to the kind of experiment: Method 3: Human Recombinant PDE11 Enzyme Inhibition Scintillation Proximity Assay (SPA). Format: biochemical. To be noted: Table F, WO2004096810 examples; read-out: METHOD 3: PDE11 IC50. As for the experimental part: Method 3: Human Recombinant PDE11 Enzyme Inhibition Scintillation Proximity Assay (SPA)
PDE11 Expression and Purification:
(§1) Incubate at 27° C. with 220 rpm shaking for 48 hours. Harvest the infected cells by pelleting at 2000 rpm for 10 minutes at 4° C. Store the infected cell pellet at −80° C. until ready for purification. Resuspend the thawed cell pellets to 1×10^7 cells/ml (=20 ml buffer consisting of 20 mM Hepes (pH7.2), 1 mM EDTA, 20 mM sucrose, 150 mM NaCl and protease inhibitor tablets). Mix thoroughly and allow to stand on ice for 10 minutes. Sonicate for 5×5 seconds, on ice. Spin the mixture at 12,000 rpm for 10 minutes at 4° C. in SS34. Store the insoluble pellet at −80° C., and proceed to the purification of the soluble material. • (b) Purification: Prepare the column (1.0 cm diameter, Kontes) by rinsing the empty column twice with TBS. Then mix beads (Anti-FLAG M2 Agarose, Sigma) with TBS and add to the column—allow the beads to settle. Wash the column with 3 column volumes of 0.1M glycine (pH3.5). […] Apply the extract to the column and allow the extract to enter by gravity flow. Reapply the flow-through. Wash the column with 15 column volumes of TBS. Elute the protein with 5×1 ml aliquots of FLAG peptide (Sigma) (i.e., 100 ug/ml in TBS). Elute the remaining protein with 1 ml 0.1M glycine, and immediately add 25 ul 1M Tris pH8 to neutralize. Method 3A: Alternative Human Recombinant PDE11 Enzyme Inhibition Scintillation Proximity Assay (SPA)

Series [2] concerns the target T2, PDE11 enzyme. Nature of the series: Method 3A: Alternative Human Recombinant PDE11 Enzyme Inhibition Scintillation Proximity Assay (SPA). To be noted: Table F, WO2004096810 examples. Format: biochemical. As for the experimental part:
as §1

In series [3] the test system is Chinese hamster ovary (CHO) cells. As to the kind of experiment: Method 7: Micronucleus Assay. Format: cell-based. The arrangement: key: Negative: A negative result identifies no genotoxic hazard defined by the assays specific endpoint; Positive: A positive result identifies a genotoxic hazard defined by the assays specific endpoint; Equivocal: fails to display a negative or positive result as defined by established evaluation criteria; Inconclusive: the test compound has been evaluated in an invalid assay test. As to conditions: in vitro, with and without S9. On the procedure:
Method 7: Micronucleus Assay
An in vitro micronucleus assay can be used to determine the mutagenic potential of a test compound. This assay detects chromosome abnormalities resulting from exposure to a test compound by measuring the formation of small membrane-bound DNA fragments such as micronuclei in the cytoplasm of interphase cells.
The assay is conducted using Chinese hamster ovary (CHO) cells under different test conditions in the absence and presence of metabolic activation. Concordance in outcomes between this screening assay and in vitro cytogenetics is around 85%. Direct (−S9) testing is conducted using 24 hour or 3 hour continuous treatments, whereas testing with metabolic activation (+S9) involves a 3 hour treatment. Clastogenicity is indicated by an increase in numbers of micronucleated cells in the first interphase after exposure (in cytokinesis-blocked binucleated cells). The results are compared to the level of cytotoxicity (measured by the proportion of binucleated cells) a test compound produces. […] A test compound displaying a negative response has not fulfilled specific evaluation criteria for the assay which may include one or both of the following: 1) a reproducible concentration dependent increase in the specific assay endpoint when compared to a negative (vehicle) control and/or 2) one or more test concentrations achieving a minimum fold increase in the specific endpoint over controls. • Positive—A positive result identifies a genotoxic hazard defined by the assays specific endpoint (ex. positive in vitro micronucleus). A test compound displaying a positive response has fulfilled specific evaluation criteria for the assay which may include one or both of the following: 1) a reproducible concentration dependent increase in the specific assay endpoint when compared to a negative (vehicle) control and/or 2) one or more test concentrations achieving a minimum fold increase in the specific endpoint over controls. • Equivocal—An equivocal result is reserved for situations where the test compound has been evaluated in a valid assay test or tests (i.e. assay acceptability criteria satisfactory), but fails to display a negative or positive result as defined by established evaluation criteria. This may convey the presence of a weak positive response that requires additional repeat testing or eventual confirmatory testing case-by-case. • Inconclusive—An inconclusive result is reserved for situations where the test compound has been evaluated in an invalid assay test (i.e. assay acceptability criteria unsatisfactory for technical reasons, ex. negative or positive controls fail to respond appropriately). Repeat testing is recommended in order to establish a valid assay test result.

T2 sequence (Q9HCR9 with tags, fused parts or gaps DUP921-921 limits assumed): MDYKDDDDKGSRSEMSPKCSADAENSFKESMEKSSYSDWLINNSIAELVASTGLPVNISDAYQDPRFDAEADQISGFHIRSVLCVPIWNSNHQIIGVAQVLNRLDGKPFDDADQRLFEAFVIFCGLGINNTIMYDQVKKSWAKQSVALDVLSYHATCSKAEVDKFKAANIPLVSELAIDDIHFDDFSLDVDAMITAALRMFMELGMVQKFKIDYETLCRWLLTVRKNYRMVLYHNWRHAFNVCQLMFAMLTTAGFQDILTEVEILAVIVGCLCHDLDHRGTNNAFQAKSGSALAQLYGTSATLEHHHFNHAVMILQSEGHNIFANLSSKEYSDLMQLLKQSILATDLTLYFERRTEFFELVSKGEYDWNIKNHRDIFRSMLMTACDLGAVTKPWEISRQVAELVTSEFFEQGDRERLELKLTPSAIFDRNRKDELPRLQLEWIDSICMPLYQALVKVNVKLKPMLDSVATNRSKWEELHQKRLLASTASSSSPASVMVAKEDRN
Description for PDE6 enzyme: Lift the retina with care and locate the optic nerve. Cut through the optic nerve and transfer the retina to a small dish containing a few ml of homogenisation buffer. Gently float the retina out on the surface of the buffer and remove any obvious pigmented material from the iris. Place the retina in a second dish with clean buffer to remove last traces of pigment and then transfer to a 50 ml Corning Costar centrifuge tube (Sigma) and keep on ice. • PDE6 Isolation and Purification from Retina: Allow 2 mls of the homogenisation buffer per bovine retina and 1 ml per retina for dog and human. Homogenise using hand-held homogeniser 3×5 second bursts cooling on ice between each burst. Filter homogenate through two layers of surgical gauze. Spin at 100,000 g for 60 minutes at 4° C. […] Run through FPLC (Pharmacia FPLC LKB/FRAC-100, Pharmacia) or aliquot and store in liquid nitrogen as needed. Method 2A: Alternative Human Retina PDE6 Enzyme Inhibition Scintillation Proximity Assay (SPA)
The inhibition of PDE6 enzyme activity by a test compound also can be measured in accordance with the in vitro assay of Method 1A, but instead using semi-purified PDE6 enzyme isolated from human, bovine or canine retina in place of PDE5 enzyme. […] [3H]GMP binds to yttrium silicate SPA beads and is detected by scintillation counting.

In the case of `Cc1ccnc(Nc2nc(N3CCC(C(=O)O)CC3)nc3c(C)nn(CCOCC(F)(F)F)c23)c1` [WO2004096810 Example 261], the IC50 at PDE5 enzyme turned out to be 0.115 nM; against PDE6 enzyme, 110 nM; at PDE11 enzyme [1] it was 426 nM; on PDE11 enzyme [2], 585 nM. The “METHOD 7: MICRONUCLEUS ASSAY” value in series [3] is listed as “Positive”.
As to `Cc1cc(Nc2nc(N3CCC(C(=O)O)CC3)nc3c(C)nn(CCOCC(F)(F)F)c23)ncn1` [WO2004096810 Example 262], the IC50 is 0.0755 nM against PDE5 enzyme, 66.3 nM against PDE6 enzyme, 471 nM at PDE11 enzyme [1] and 608 nM on PDE11 enzyme [2]. In addition, the “METHOD 7: MI[…]” value in series [3] is reported as “Equivocal”.
For `CCc1nn(CCOCC(F)(F)F)c2c(Nc3cc(C)ncn3)nc(N3CCC(C(=O)O)CC3)nc12` [WO2004096810 Example 263], the IC50 is 0.0197 nM on PDE5 enzyme, 30.6 nM on PDE6 enzyme, 316 nM on PDE11 enzyme [1] and 384 nM on PDE11 enzyme [2]. Also, the “METHOD 7: MICRONUCLEUS ASSAY” value in series [3] is recorded as “Positive”.
